Results as given in patent publication US20240423976A1, “COMPOSITIONS AND METHODS FOR TREATING THERAPEUTIC-INDUCED TOXICITIES” (THE BOARD OF REGENTS OF THE UNIVERSITY OF OKLAHOMA, priority 2023, published 2024).

Key:
HEI-OC1 cells [1] = experiment: Cellular internalization study of C6-cHy-NPs with pathway inhibitors and over time; assay type: cell-based; conditions: 40 μg/mL inhibitor, 1 h pre-incubation
Procedure: First, blank cHy-NPs (cHy-NPs, without FL or HK encapsulation) were prepared as described below. In, 1 mL colloidal solution of cHy-NPs, 1 mg coumarin-6 (C-6) was added and the mixture was stirred at 200 rpm overnight at room temperature. The NP solution was then centrifuged at 2000 rpm for 5 min to remove unloaded C-6. The supernatant containing C-6-cHy-NPs was transferred to a fresh microcentrifuge tube. The HEI-OC1 (House Ear Institute-Organ of Corti 1) cells were seeded in 96 well plate (10000 cells per well) overnight. After washing with fresh growth media, the media (100 μL) containing 40 μg/mL CPZ, MβCD, GNT, or AML was added to separate columns (2 columns kept untreated as a control group). After 1 h of incubation at 33° C. (5% CO2), 2.5 μL of C6-cHy-NPs (10× diluted with media) were added to each well. The plate was incubated for 4 h and the cells were washed using PBS. After adding fresh PBS, the fluorescence intensity of each well was recorded using a multi-well plate fluorescence spectrophotometer (Synergy 2, BioTek, USA) at λex/em 460/505. In another experiment to confirm the effect of various inhibitors, the cells (20000 per well) were seeded overnight, and incubated with different concentrations (0, 2.5, 5, 10, 20, 30, 40, 50, and 75 μg/mL) of MβCD, GNT, or AML. After treatment, incubation, and washing, the fluorescence intensity of each well was recorded as described above. Furthermore, to study the time of cellular internalization the cells (20000 per well) were treated with C-6-cHy-NPs (5 μL, 10× diluted), and the fluorescence of the samples was recorded after washing at different time intervals (0.25, 0.5, 1, 2, 3, 4, 5, 6, 8, 10, 24, and 48 h) of incubation. For microscopy analysis, the cells were seeded in a 6 well plate (1×10^5 cells/well) and incubated overnight. The next day, cells were washed and in each well media containing C-6-cHy-NPs was added. At different time intervals (0.5, 1, 2, 3, 4, and 5 h), the cells of a well were washed using PBS and analyzed under the fluorescence microscope using a 20× lens (Revolve, Discover Echo Inc., San Diego, CA, USA) at λex 460 nm. Counterstain Hoechst 33342 (1 μg/mL, 10 min incubation in the dark, λex 350 nm) was used.

HEI-OC1 cells [2] = experiment: PI staining necrosis / cell death assay; assay type: cell-based; conditions: 48 h; pre-treatment then CisPt; CisPt row is CisPt only
Procedure: (§1) The HEI-OC1 Cells (10000 cells/well in 96-well plates) were treated with various treatment groups as described above in the cell cytotoxicity study section. The endpoints for ROS generation, apoptosis, and necrosis studies were set up at 24, 36, and 48 h, respectively. For ROS generation study, the cells were washed two times with fresh media and then culture media containing DCFH2DA reagent (10 μM) was added to each well. After 30 min incubation in dark at 33° C. (5% CO2) the cells were washed with PBS three times. Fresh PBS (100 μL) was added and the fluorescence was recorded at λex/em 480/530 nm using a multi-well plate fluorescence spectrophotometer (Synergy 2, BioTek, USA). […] After washing, the fluorescence was recorded at λex/em 480/530 nm using a multi-well plate fluorescence spectrophotometer (Synergy 2, BioTek, USA). […] After 15 min incubation in dark, the fluorescence was recorded at λex/em 530/615 nm using a multi-well plate fluorescence spectrophotometer (Synergy 2, BioTek, USA). The fluorescence microscopy analysis of ROS generation, apoptosis, and necrosis experiments was performed. […] The cells were observed under the fluorescence microscope using a 20× lens at the respective dye fluorescence filter as described above. For HOECHST-33342 λex/em 350/460 nm fluorescence filter was used.

HEI-OC1 cells [3] = experiment: MitoSOX mitochondrial superoxide assay; assay type: cell-based; conditions: MitoSOX fluorescence
HEI-OC1 cells [4] = experiment: Intracellular ROS generation (DCFH2-DA); assay type: cell-based
Procedure: as §1

caspase 3/7 [5] = experiment: Caspase 3/7 apoptosis assay; assay type: cell-based; conditions: HEI-OC1
Procedure: as §1

neuromast hair cells = experiment: Otoprotection studies on zebrafish (cisplatin ototoxicity); assay type: in vivo; conditions: 5-6 dpf fish; 33, 17, 2 mM alone or 17+17, 8.5+8.5, 3+3 mM; cisplatin 400 mM, 6 hours
Procedure: Fish were maintained at 28.5° C. in E3 media with a 14-hour light/10-hour dark cycle. Otoprotection studies were performed in 5-6 dpf wild type (TuAB) fish as previously described [2]. Briefly, fish were pre-incubated for one hour in E3 media containing FL, HK or FL+HK and then co-incubated for 6 hours with the corresponding cytoprotective molecules and clinical cisplatin 400 mM. Concentrations were as follow: FL or HK=33 mM, 17 mM and 2 mM; FL+HK=17+17 mM, 8.5+8.5 mM and 3+3 mM. Fish were also incubated with empty NPs as control. After the treatment, fish were transferred to fresh E3 media for one hour to recover, followed by fixation (4% PFA) and processing for confocal imaging. For the detection of neuromast hair cells, fish were immunostained for the hair cell marker, otoferlin (HCS-1, DSHB, 1:200 dilution). Hair cells were manually counted using a Zeiss AxioSkop 2 fluorescence microscope. The neuromasts inspected were part of the cranial system and included the otic, middle, and opercular neuromasts. Ten to twelve fish were used per treatment. Confocal imaging was performed using a Zeiss LSM 700 confocal laser scanning image system. Images were captured at room temperature with automatically set sectioning and processed with ZEN black edition software. Z-stacks are presented as flat Z-projections.

[6] = In vitro drug release kinetics from thermoresponsive hydrogel (Korsmeyer-Peppas model); assay type: physicochemical; conditions: PBS pH 7.4; for release from the hydrogel: in 48 h at 25° C.; for maximum release from the hydrogel: in one month at 37° C.
Procedure: Two 24 well plates were taken equipped with 6.5 mm inserts (Transwell®, Costar, Corning, NY, USA) having 8 µm pores polycarbonate support membrane six in each plate. The developed hydrogel formulations containing FL-cHy-NPs and HK-cHy-NPs were filled in the inserts (n=3, in each plate and each formulation). One plate was placed at 37° C. while the other one was kept at 25° C. After 30 min, the receiver media (1 mL, PBS pH 7.4) was filled in each well-containing insert. Other wells were filled with deionized water to maintain humidity in the plate. […] The drug content (FL and HK) was extracted using DCM; solvent-solvent extraction. After evaporating the DCM, the extracted FL and HK content was dissolved in methanol (100 μL, 100% LC-MS grade). The drug quantification of FL and HK in each sample was done using HPLC using the same procedure described above. The release kinetics of FL and HK from both hydrogels were calculated using the Korsmeyer-Peppas model (eq 7). where, Mt is the mass of the drug released at time t; […]

caspase 3/7 [7] = experiment: Caspase 3/7 activation in CisPt-exposed cells (FLICA, fluorescence microscopy), Example 1; assay type: cell-based; conditions: CisPt-exposed HEI-OC1 cells
Procedure: Novel dual stimuli-responsive nanoformulations have been investigated for the synthesis of ROS-responsive polymers, and thermo-responsive polymers and their characterization using ^1H NMR. Drug loaded NCs comprising BUC and/or DLT in micelles of PPS-mPEG2000 were prepared by nanoprecipitation methods. The BUC-PPS-mPEG2000-NCs and DLT-PPS-mPEG2000-NCs were characterized using DLS and NTA and TEM images. The EE % and DL % of NCs were determined using HPLC and Ellman's assays. The long-term storage stability over two months was checked by using DLS for size and PDI. In vitro assessments were performed on the HEIOC1 cell lines for MTT and Live-dead cell assays for biocompatibility and cellular uptake analysis, respectively. The cytoprotective effect of BUC-NCs, DLT-NCs and BUC/DLT-PPS-mPEG2000-NCs, were studied after treating with various regimens and different concentration with and without cisplatin. The ROS-Scavenging effect nanoformulation was confirmed by the DCFH-DA assay, and FLICA assays. The final formulation, named NanoSensoGel, comprising a combination of a thermo-responsive P407 hydrogel, and the ROS-responsive BUC/DLT loaded PPS-mPEG2000-NCs, was characterized for its bio-responsiveness, a novel method was established to perform the in vitro drug release, and release kinetics mechanism were studied for dual drug release.

methyl-β-cyclodextrin [MβCD]
effect of pathway inhibitor pretreatment on cellular internalization of C6-cHy-NPs (HEI-OC1 cells [1]): no significant change in the cellular internalization

O=S([O-])([O-])=S.[Na+].[Na+] [STS, Sodium thiosulphate]
ratio of normalized intensities of total cells and PI-stained cells (HEI-OC1 cells [2]): 2.03±0.02
mitochondrial superoxide compared to CisPt-only treated cells (HEI-OC1 cells [3]): significantly reduced mitochondrial superoxide
ROS generation compared to CisPt-only treated cells (HEI-OC1 cells [4]; 24 h post CisPt addition): did not show a significant ROS generation
ratio of normalized intensities of total cells and DCF-stained cells (HEI-OC1 cells [4]; fluorescence microscopy, pre-treatment then CisPt, CisPt row is CisPt only): 1.53±0.23
caspase 3/7 activation compared to CisPt only treated cells (caspase 3/7 [5]): significantly reduced signals of caspase 3/7 activation

CN(C)CCCN1c2ccccc2Sc2ccc(Cl)cc21 [CPZ, Chlorpromazine]
effect of pathway inhibitor pretreatment on cellular internalization of C6-cHy-NPs (HEI-OC1 cells [1]): significantly reduced cellular internalization

C=CCc1ccc(O)c(-c2ccc(O)c(CC=C)c2)c1 [HK, Honokiol]
protection of neuromast hair cells against cisplatin-induced ototoxicity (neuromast hair cells): prevented hair cell loss
release from the hydrogel [6]: ~60%
maximum release from the hydrogel [6]: ~50%

Fc1ccc(C(c2ccc(F)cc2)N2CCN(C/C=C/c3ccccc3)CC2)cc1 [FL, Flunarizine]
protection of neuromast hair cells against cisplatin-induced ototoxicity (neuromast hair cells): prevented hair cell loss
release from the hydrogel [6]: ~60%
maximum release from the hydrogel [6]: ~50%

O=c1c(-c2ccc(O)cc2)coc2cc(O)cc(O)c12 [GNT, Genistein]
effect of pathway inhibitor pretreatment on cellular internalization of C6-cHy-NPs (HEI-OC1 cells [1]): no significant change in the cellular internalization

CC(C)(S)C(=O)N[C@@H](CS)C(=O)O [BUC, bucillamine]
inhibition of caspase 3/7 activation (caspase 3/7 [7]): highly responsible for the inhibition of the caspase 3/7 activation

N=C(N)NC(=O)c1nc(Cl)c(N)nc1N [AML, Amiloride]
effect of pathway inhibitor pretreatment on cellular internalization of C6-cHy-NPs (HEI-OC1 cells [1]): no significant change in the cellular internalization
